Measurements reported in publication PMC11187542, “Identification of fragments targeting SMYD3 using highly sensitive kinetic and multiplexed biosensor-based screening” (RSC Medicinal Chemistry, 2024).

What was measured:
[1] = target: T1, SMYD3 (Homo sapiens, UniProt Q9H7B4); assay: X-ray crystallography of SMYD3-fragment complexes (co-crystallization and soaking); set-up: key to XRC: success or failure of crystallization in complex with SMYD3: The success (+) or failure (−) of crystallization in complex with SMYD3; The success (+) or failure (−) of crystallization in complex with SMYD3; conditions: 5 mM fragment co-crystallization or soaking
T1 construct: Full length recombinant SMYD3 was produced as previously reported; made in house; host or cells: E. coli BL21(DE3), in some cases Rosetta 2
T1 sequence (Q9H7B4 1-428): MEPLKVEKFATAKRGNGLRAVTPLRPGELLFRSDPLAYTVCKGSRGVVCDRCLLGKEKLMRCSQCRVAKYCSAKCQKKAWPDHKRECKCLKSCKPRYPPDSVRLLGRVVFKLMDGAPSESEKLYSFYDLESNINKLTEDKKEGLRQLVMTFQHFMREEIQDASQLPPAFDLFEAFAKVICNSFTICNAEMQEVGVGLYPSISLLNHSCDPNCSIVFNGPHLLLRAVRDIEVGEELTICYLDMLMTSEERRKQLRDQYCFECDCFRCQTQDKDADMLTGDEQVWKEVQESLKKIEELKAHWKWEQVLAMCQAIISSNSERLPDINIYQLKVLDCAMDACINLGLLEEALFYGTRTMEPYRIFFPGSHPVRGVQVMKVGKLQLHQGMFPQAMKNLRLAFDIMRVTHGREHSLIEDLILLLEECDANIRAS
Description: To identify binding sites and binding modes, the fragment hits (Table 1) were used in both co-crystallization and soaking experiments to obtain SMYD3-fragment co-crystals for X-ray crystallographic analyses. Diffraction data of 1.6–1.9 Å maximum resolution were obtained for four fragments (Fig. 5). For data collection and refinement statistics, see ESI, ^† Table S1.
Four new sites were thus identified.
Polder (F0–Fc) maps (Fig. 5, right) were generated to establish whether the observed electron density features were more likely to represent background noise or to belong to bound fragments. These omit maps are generated upon exclusion of the ligand and surrounding solvent from the model, which aids in visualizing weak densities. […] For fragments FL01507, FL08580 and FL08619, a comparison of the maps obtained after refinement with a bound fragment with maps obtained upon their replacement with either glycerol or acetate, which were present in the crystallization or cryo-protectant solutions, respectively, was required.
8 mg mL^−1 of SMYD3 in storage buffer (TBS buffer containing 2 mM DTT) was pre-incubated for 4–8 hours with 5 mM of a respective fragment hit compound and 10% (v/v) DMSO. Subsequently, 1 μL of this solution was mixed with an equal volume of reservoir solution (100 mM Tris, 100 mM magnesium acetate, 15–17% PEG3350, pH 8.25–8.75) to create the drops for co-crystallization by hanging drop vapour diffusion performed at 20 °C. Needle-like co-crystals nucleated within 12 h of equilibration against the reservoir. In addition, crystals of SMYD3 obtained in ligand-free crystallization setups were soaked with fragment solution prior to freezing. All crystals were cryo-protected via brief immersion in reservoir solution supplemented with 10% (v/v) glycerol.
Diffraction data were collected at beamline ID23-1 of the European Synchrotron Radiation Facility (ESRF, Grenoble, France). Data were indexed, auto-processed, scaled and merged on-site using the implemented data processing routines and software. Fragment-associated electron density features were identified upon data analysis with the Pipedream system (version 1.4.0, Global Phasing Ltd, Cambridge, United Kingdom), which includes data processing with autoPROC,[14] molecular replacement with Phaser,[15] structure refinement with BUSTER version 2.10.4 (Global Phasing Ltd, Cambridge, United Kingdom), automated ligand fitting with Rhofit (Global Phasing Ltd, Cambridge, United Kingdom) and BUSTER post-refinement.[16] Refinement was done with Phenix,[17] and model building with Coot.[18] (F0–Fc) difference density maps for models, from which ligand atoms and surrounding water molecules were removed, were generated using Phenix.

[2] = target: T2, SMYD3 in complex with active site-specific tight-binding inhibitor EPZ031686 (Homo sapiens, UniProt Q9H7B4); assay: GCI biosensor kinetic screening, active site blocked SMYD3 surface; conditions: for LE (ligand efficiency): LE = −RT ln(KD)/n, blocked SMYD3 surface; for Kd / kd / kon at 250 µM: initial kinetic screening, fragment 250 μM, 15 °C; for Kd: SMYD3 blocked by EPZ031686; for kd / kon at 250 µM: SMYD3 blocked by EPZ031686, 1:1 model; for kon at 250 µM: read-out: ka
T2 construct: Full length recombinant SMYD3 was produced as previously reported; made in house; host or cells: E. coli BL21(DE3), in some cases Rosetta 2
T2 sequence (Q9H7B4 1-428): T1 sequence (Q9H7B4 1-428)
Description: (§1) A multiplexed screening assay was set up with three different SMYD3 surfaces and a blank reference surface in flow channels 1–4 (FC1–FC4) (Fig. 2a), as described previously.[5] The apo SMYD3 surface detected fragments interacting anywhere on SMYD3, while a SMYD3 surface blocked by active site-specific tight-binding inhibitor EPZ031686 detected compounds binding elsewhere. The denatured surface served as a reference, detecting fragments binding to unfolded proteins, also potentially present to a significant degree in the other two surfaces.
(§2) The library was screened using the approach described in Fig. 1, i.e. injection of fragments at 250 μM for increasing durations of time in a single cycle, using a flow rate of 100 μL min^−1, data acquisition set to 40 Hz and with an association time of 5 s and dissociation of 20 s. Each fragment was addressed to all four channels and interactions with the native and blocked surfaces compared. The experimental conditions were chosen to ensure that the assay could reliably characterize the fast and transient interactions expected from typical fragments.
(§3) The kinetic screening of 1056 compounds was successfully completed in 72 hours. […] Hits were identified with full kinetic information using dissociation phases.
(§4) All interaction kinetic experiments were conducted with a GCI–flow-based biosensor (WAVEdelta, Creoptix AG/Malvern Panalytical) and PCH WAVEchip (Creoptix AG/Malvern Panalytical) sensor chips. The sensor chips were conditioned using injections of borate buffer (10 mM sodium tetraborate pH 8.5, 1 M NaCl). The running buffer composition, if not otherwise stated, was TBS buffer (50 mM Tris, 150 mM NaCl, 0.5 mM TCEP, 0.05% Tween 20, 1% DMSO, pH 8). SMYD3 was diluted to the desired concentration in 10 mM bis-Tris (pH 7.0) and amine coupled to the sensor surface of the PCH sensor chip. The sensor chip was functionalized at 25 °C by immobilising SMYD3 with EDC and NHS (Xantec) using an injection time of 420 s and a flow rate of 10 μL min^−1. The immobilisation levels ranged from 5000 pg mm^−2 to 18 500 pg mm^−2 surface mass to enable analysis of fragments spanning a broad range of affinities. After immobilization, the surface was deactivated with a running buffer containing 50 mM Tris for 420 s. The GCI data referencing and analysis were performed using WAVEcontrol V4.5 (Creoptix AG).
(§5) Kinetic measurements with controls and fragments were performed at 15 °C. Analysis of controls and follow up of hits was done using the multi cycle kinetic (MCK) injection of a concentration series for the same time, with a two-fold serial dilution starting at 250 μM for each compound. Solvent correction was performed ranging from 0.5–1.8% DMSO. Blank samples of the running buffer, 1× TBS (50 mM Tris, 150 mM NaCl, 0.5 mM TCEP, 0.05% Tween 20, 1% DMSO, pH 8), were injected during the measurements every fifth cycle. The experimental design illustrated in Fig. 1 was used for the screening against all four surfaces. The sensorgrams were adjusted to account for solvent correction and blank subtraction. Kinetic fitting was performed with the Direct Kinetics engine of WAVEcontrol software V4.5 (Creoptix AG) with a suitable fitting model.

[3] = target: T1, SMYD3; assay: GCI biosensor multi cycle kinetic confirmation of hits; assay type: binding; conditions: two-fold serial dilution starting at 250 μM, 15 °C, global fit 1:1 model
Experimental: Selected screening hits were also re-tested by conventional multi cycle kinetic analysis in order to confirm the interactions (some compounds were no longer available). Two variants of the GCI biosensor assay were set up, using different immobilisation levels, to allow the confirmation of hits over a broad range of affinities. […] The kinetics varied for the selected hits (ESI, ^† Fig. S2). All hits were not confirmed (ESI, ^† Fig. S1b).
as §4, §5
FL06268 Superstoichiometric and
Figure 1. Examples of sensorgrams from multicycle kinetic experiments with initial fragment hits and SMYD3. A)
Fragments for which crystal structures of the complex with SMYD3 were obtained. A global fit of the sensorgrams
crystal structures were not obtained. […]

[4] = target: T3, SMYD3 (apo, native) (Homo sapiens, UniProt Q9H7B4); assay: GCI biosensor kinetic screening, apo SMYD3 surface; assay type: binding; conditions: for LE (ligand efficiency): LE = −RT ln(KD)/n; for Kd / kd / kon at 250 µM: initial kinetic screening, fragment 250 μM, 15 °C; for kd / kon at 250 µM: 1:1 model; for kon at 250 µM: read-out: ka
T3 construct: Full length recombinant SMYD3 was produced as previously reported; made in house; host or cells: E. coli BL21(DE3), in some cases Rosetta 2
T3 sequence (Q9H7B4 1-428): T1 sequence (Q9H7B4 1-428)
Description: as §1
After preparing the sensor surface and immobilising SMYD3, the functionality of the surface was assessed via analysis of interactions with the co-factor product S-adenosyl-homocysteine (SAH). It was used as a control in all experiments, confirming that sensor surfaces were intact. This was done using the novel multiple injection-based experimental design (Fig. 1) at 25 μM, i.e. in a weak binder mode (Fig. 2b).
as §2, §3, §4, §5

SMILES	XRC: success or failure of crystallization in complex with SMYD3 [1]	LE (ligand efficiency) [2]	Kd [2]	kd [2]	kon at 250 µM [2]	Outcome of multicycle kinetic experiment (sensorgram assessment) [3]	LE (ligand efficiency) [4]	Kd [4]	kd [4]	kon at 250 µM [4]
Nc1ccnc(-c2cccnc2)n1 [FL08779]	(−)	0.48 (kcal^-1 mol^-1)/HA	25 µM	1.07 s⁻¹	41900 M⁻¹ s⁻¹	–	–	–	–	–
CC(C)c1nsc(N)n1 [FL01791]	(+)	0.67 (kcal^-1 mol^-1)/HA	37 µM	1.46 s⁻¹	39100 M⁻¹ s⁻¹	–	–	–	–	–
O=c1cc(C(F)(F)F)c2cc(Cl)c(O)cc2o1 [FL01677]	(−)	–	–	–	–	No binding	0.35 (kcal^-1 mol^-1)/HA	44.4 µM	0.96 s⁻¹	21600 M⁻¹ s⁻¹
NC(=O)c1cccc(O)c1 [FL08580]	(−)	–	–	–	–	–	0.70 (kcal^-1 mol^-1)/HA	7.84 µM	0.93 s⁻¹	118000 M⁻¹ s⁻¹
COc1ccccc1C1OC(=O)CC1C(=O)O (stereo not shown) [FL03512]	(−)	–	–	–	–	–	0.35 (kcal^-1 mol^-1)/HA	38 µM	1.61 s⁻¹	42200 M⁻¹ s⁻¹
Nc1nnc(-c2cccnc2)s1 [FL08795]	(−)	–	–	–	–	–	0.49 (kcal^-1 mol^-1)/HA	51.3 µM	2.04 s⁻¹	39700 M⁻¹ s⁻¹
O=C(O)c1cc(Br)c(O)c(Br)c1 [FL01775]	(−)	0.48 (kcal^-1 mol^-1)/HA	56 µM	1.37 s⁻¹	24400 M⁻¹ s⁻¹	–	–	–	–	–
N#Cc1cc(Br)ccc1O [FL01750]	(−)	–	–	–	–	No binding	0.61 (kcal^-1 mol^-1)/HA	31.6 µM	0.93 s⁻¹	29500 M⁻¹ s⁻¹
Nc1ccc(S(N)(=O)=O)cc1 [FL04272]	(−)	–	–	–	–	–	0.66 (kcal^-1 mol^-1)/HA	4.4 µM	0.68 s⁻¹	150000 M⁻¹ s⁻¹
CC(C)(C)OC(=O)NC1CCC(CC(=O)O)CC1 (stereo not shown) [FL08758]	(−)	0.32 (kcal^-1 mol^-1)/HA	60 µM	2.01 s⁻¹	33300 M⁻¹ s⁻¹	–	–	–	–	–
N#Cc1cccc(O)c1 [FL01507]	(+)	–	–	–	–	Complex interaction	0.72 (kcal^-1 mol^-1)/HA	17.9 µM	1.3 s⁻¹	72000 M⁻¹ s⁻¹
O=C(O)c1ccnc2ccccc12 [FL02261]	(−)	–	–	–	–	–	0.50 (kcal^-1 mol^-1)/HA	17.4 µM	1.09 s⁻¹	62700 M⁻¹ s⁻¹
COc1ccc(-n2ncc(C(=O)O)c2C)cc1 [FL01833]	(−)	0.31 (kcal^-1 mol^-1)/HA	149 µM	1.46 s⁻¹	9780 M⁻¹ s⁻¹	–	–	–	–	–
Oc1ccc2ccncc2c1 [FL01657]	(−)	0.53 (kcal^-1 mol^-1)/HA	56 µM	1.09 s⁻¹	19400 M⁻¹ s⁻¹	–	–	–	–	–
COc1ccc(Br)cc1N [FL01938]	(−)	0.53 (kcal^-1 mol^-1)/HA	124 µM	1.61 s⁻¹	13000 M⁻¹ s⁻¹	–	–	–	–	–
Nc1nc2cccnc2cc1Br [FL01891]	(−)	–	–	–	–	–	0.52 (kcal^-1 mol^-1)/HA	27.4 µM	0.70 s⁻¹	25900 M⁻¹ s⁻¹
O=S(=O)(c1ccccc1)C1CCNC1 (stereo not shown) [FL08644]	(−)	0.51 (kcal^-1 mol^-1)/HA	5.6 µM	0.42 s⁻¹	75200 M⁻¹ s⁻¹	–	–	–	–	–
